Measured values taken from ChEMBL document CHEMBL1201862, “PubChem BioAssay data set” (2004).
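A five-concentration, 48-hour dose response in 96-well plates underlies each endpoint, interpolated linearly between surrounding concentrations. GI50 is the concentration that inhibits growth by half.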 Active and inactive are the calls of the source. No stated cut-off is given here; in the data, active = GI50 up to about 1.1 µM and inactive = higher.

Experiments:
Experiment in all cases: NCI anticancer screen, dose series, 48 h
A498 = test system: A498
A549 = test system: A549
CAKI-1 = test system: CAKI-1
HL-60 = test system: HL-60
HT-29 = test system: HT-29
LXFL 529 = test system: LXFL 529
Malme-3M = test system: Malme-3M
SF-295 = test system: SF-295
SK-MEL-28 = test system: SK-MEL-28
SK-MEL-5 = test system: SK-MEL-5
SK-OV-3 = test system: SK-OV-3
SN12C = test system: SN12C
SNB-75 = test system: SNB-75
U-251 = test system: U-251
UACC-257 = test system: UACC-257

Measured: GI50

CCN1CCC(O)(c2ccccc2)C(C(=O)c2ccccc2)C1 (stereo not drawn)
inactive: A498 > 100 µM | A549 > 67.1 µM | CAKI-1 14 µM | HL-60 19.5 µM | HT-29 20.4 µM | LXFL 529 15.6 µM | Malme-3M 21.1 µM | SF-295 > 65.6 µM | SK-MEL-28 17.9 µM | SK-MEL-5 33.7 µM | SK-OV-3 > 100 µM | SN12C 20.1 µM | SNB-75 > 89.3 µM | U-251 > 100 µM | UACC-257 19.6 µM

S=c1sc2sc(=S)sc2s1
inactive: A498 23.5 µM | A549 31.6 µM | CAKI-1 > 100 µM | HL-60 5.92 µM | HT-29 29.6 µM | LXFL 529 13.6 µM | Malme-3M > 100 µM | SF-295 20.6 µM | SK-MEL-5 > 100 µM | SK-OV-3 19.6 µM | SN12C 96.8 µM | SNB-75 35.5 µM | U-251 21 µM | UACC-257 > 100 µM

COC(=O)CC(NC(=O)OCc1ccccc1)C(C(C)=O)C(=O)OCc1ccccc1 (stereo not drawn)
inactive: A498 > 31.6 µM | A549 > 31.6 µM | CAKI-1 > 31.6 µM | HL-60 > 31.6 µM | HT-29 > 10 µM | LXFL 529 5.48 µM | Malme-3M > 10 µM | SF-295 > 100 µM | SK-MEL-28 > 31.6 µM | SK-MEL-5 > 31.6 µM | SK-OV-3 > 31.6 µM | SN12C > 31.6 µM | SNB-75 20.2 µM | U-251 > 31.6 µM | UACC-257 > 31.6 µM

CN(C)/C(=N/C(=O)Nc1ccccc1)SCc1ccccc1
inactive: A498 > 100 µM | A549 > 100 µM | CAKI-1 > 100 µM | HL-60 > 100 µM | HT-29 > 100 µM | LXFL 529 > 100 µM | Malme-3M > 100 µM | SF-295 > 100 µM | SK-MEL-28 > 100 µM | SK-MEL-5 > 100 µM | SK-OV-3 > 100 µM | SN12C > 100 µM | SNB-75 > 100 µM | U-251 > 100 µM | UACC-257 > 100 µM

O=C(O)CC12C3C4C5C3C1C5C42 (stereo not drawn)
inactive: A498 > 100 µM | A549 > 100 µM | CAKI-1 > 100 µM | HL-60 > 100 µM | HT-29 > 100 µM | LXFL 529 > 100 µM | Malme-3M > 100 µM | SF-295 > 100 µM | SK-MEL-28 > 100 µM | SK-MEL-5 > 100 µM | SK-OV-3 > 100 µM | SN12C > 100 µM | SNB-75 76.2 µM | U-251 > 100 µM | UACC-257 > 100 µM

CCCCCCCCCCCCCC1CCC(CC)N1 (stereo not drawn)
inactive: A498 21.4 µM | A549 20.8 µM | CAKI-1 15.8 µM | HL-60 5.14 µM | HT-29 5.81 µM | LXFL 529 18.2 µM | Malme-3M 18.4 µM | SF-295 18.6 µM | SK-MEL-28 7.66 µM | SK-MEL-5 17.8 µM | SK-OV-3 17 µM | SN12C 11.3 µM | SNB-75 7.28 µM | U-251 7.41 µM | UACC-257 20.7 µM

CC1(Cl)C(=O)NC(=O)N(C2CC(N=[N+]=[N-])C(CO)O2)C1N=[N+]=[N-] (stereo not drawn)
inactive: A498 > 100 µM | A549 > 100 µM | CAKI-1 > 100 µM | HL-60 > 100 µM | HT-29 > 100 µM | LXFL 529 > 100 µM | Malme-3M > 100 µM | SF-295 > 100 µM | SK-MEL-28 > 100 µM | SK-MEL-5 > 100 µM | SK-OV-3 > 100 µM | SN12C > 100 µM | SNB-75 > 100 µM | U-251 > 100 µM | UACC-257 > 100 µM

CCOC(=O)C(CNc1ccc(O)cc1)NC(=O)c1ccccc1 (stereo not drawn)
inactive: A498 > 100 µM | A549 > 100 µM | CAKI-1 > 100 µM | HL-60 25.6 µM | HT-29 > 100 µM | LXFL 529 77.3 µM | Malme-3M > 100 µM | SF-295 > 100 µM | SK-MEL-28 > 100 µM | SK-MEL-5 > 100 µM | SK-OV-3 > 100 µM | SN12C > 100 µM | SNB-75 > 100 µM | U-251 > 100 µM | UACC-257 > 100 µM

CCN(CC)c1c(C)nnn1C1OC(COC(C)=O)C(OC(C)=O)C(OC(C)=O)C1OC(C)=O (stereo not drawn)
inactive: A498 > 100 µM | A549 > 100 µM | CAKI-1 > 100 µM | HL-60 > 100 µM | HT-29 > 100 µM | LXFL 529 > 100 µM | Malme-3M > 100 µM | SF-295 > 100 µM | SK-MEL-28 > 100 µM | SK-MEL-5 > 100 µM | SK-OV-3 > 100 µM | SN12C > 100 µM | SNB-75 > 100 µM | U-251 > 100 µM | UACC-257 > 100 µM

O=C1OC(c2ccccc2)=N/C1=C/N1CCCC1C(=O)O (stereo not drawn)
inactive: A498 > 100 µM | A549 > 100 µM | CAKI-1 > 100 µM | HL-60 > 100 µM | HT-29 > 100 µM | LXFL 529 > 100 µM | Malme-3M > 100 µM | SF-295 > 100 µM | SK-MEL-28 > 100 µM | SK-MEL-5 > 100 µM | SK-OV-3 > 100 µM | SNB-75 > 100 µM | U-251 > 100 µM | UACC-257 > 100 µM
